Patent US12090128B2, “Dispersible formulations of n-((r)-2,3-dihydroxypropoxy)-3,4-difluoro-2-(2-fluoro-4-iodo-phenylamino)-benazmide and uses thereof” (SpringWorks Therapeutics, Inc., priority 2021, dated 2024)

Test: Storage stability of crystalline Form IV by XRPD and/or DSC
Format: physicochemical
Description: FIG. 3A is an XRPD corresponding to essentially pure Form IV of N—((R)-2,3-dihydroxypropoxy)-3,4-difluoro-2-(2-fluoro-4-iodo-phenylamino)-benzamide after storage for 68 months after production at 25° C. and ≤65% relative humidity.
FIG. 3B is an XRPD corresponding to essentially pure Form IV of N—((R)-2,3-dihydroxypropoxy)-3,4-difluoro-2-(2-fluoro-4-iodo-phenylamino)-benzamide after storage for 140 months after production at 25° C. and ≤65% relative humidity.
In some aspects, the XRPD pattern is generated using a PANALYTICAL® X'Pert Pro diffractometer using Ni-filtered Cu Kα (45 kV/40 mA) radiation and a step size of 0.03° 2θ with a X′CELERATOR® Real Time Multi-Strip detector, configured (a) on the incidental beam side as follows: variable divergence slits (10 mm irradiated length), 0.04 rad Soller slits, fixed anti-scatter slit (0.50°), and 10 mm beam mask, and (b) on the diffracted beam side as follows: variable anti-scatter slit (10 mm observed length) and 0.04 rad Soller slit or a BRUKER® D8® ADVANCE™ system using Cu Kα (40 kV/40 mA) radiation and a step size of 0.03° 2θ with a LYNXEYE™ detector, configured (a) on the incidental beam side as follows: Goebel mirror, mirror exit slit (0.2 mm), 2.5° Soller slit, beam knife, and (b) on the diffracted beam side as follows: anti-scatter slit (8 mm) and 2.5° Soller slit; wherein samples are mounted flat on zero-background Si wafers. […]

**Q.** Which results are given for `O=C(NOC[C@H](O)CO)c1ccc(F)c(F)c1Nc1ccc(I)cc1F` [essentially pure Form IV, N—((R)-2,3-dihydroxypropoxy)-3,4-difluoro-2-(2-fluoro-4-iodo-phenylamino)-benzamide]?
**A.** XRPD pattern and/or DSC profile after storage (storage for 68 months at standard warehouse conditions (15° C.-25° C. and ≤65% relative humidity), FIG. 3A): substantially unchanged; XRPD pattern and/or DSC profile after storage (storage for ≥140 months at standard warehouse conditions (15° C.-25° C. and ≤65% relative humidity), FIG. 3B): substantially unchanged
